Patent US20230043863A1, “HETEROAROMATIC DERIVATIVES FOR USE AS REGULATOR, PREPARATION METHOD THEREFOR AND USE THEREOF” (JIANGSU HANSOH PHARMACEUTICAL GROUP CO., LTD., priority 2018, published 2023)
Where two headings read alike, the source gives them in different places.

Experiments:
[1] = target: TYK2 (Homo sapiens, UniProt P29597); assay: JAK kinase activity inhibition, TR-FRET (TYK2); assay type: biochemical; settings: TR-FRET kinase assay
In short: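 TR-FRET read (≈620 and 665 nm) after EDTA quench and 1-24 h antibody detection at RT. Kinase 0.1-20 nM, peptide substrate + ATP, 0.5-5 h RT reaction in HEPES 50-250 mM, MgCl2 5-20 mM. IC50 from 4-parameter fit vs DMSO and no-kinase controls.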

[2] = tested on: JAK-STAT signal pathway of U266 cells; assay: Inhibition of cellular JAK-STAT signal pathway (STAT3 phosphorylation) in U266 cells; assay type: cell-based, human; settings: Homo sapiens, U-266, INF-a 1000 U/mL stimulation
In short: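 U266 cells (100-300 K/well) preincubated 2 h at room temperature with serially diluted compound, then stimulated 15 min with IFN-α at 1000 U/mL final. After lysis, STAT3 phosphorylation read by LANCE Ultra TR-FRET (Eu antibody 0.5 nM, ULight antibody 5 nM, overnight) at 665 nm; IC50 from 4-parameter fit of inhibition versus DMSO and negative controls.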

[3] = Balb/C mouse pharmacokinetics (plasma, colon, ileum); assay type: in vivo; settings: male, po, Balb/C mice, p.o. 5 mg/kg; for Cmax: read-out: Blood concentration Cmax; for AUC(0-t): read-out: Curve area AUC0-t; for AUC(0-inf): read-out: Curve area AUC0-∞; for half-life: read-out: Half life period t1/2 (converted); for MRT: read-out: Mean detention time MRT; for Tmax: read-out: Time to peak tmax
In short: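 Male Balb/C mice (12 per group), fasted overnight, given 5 mg/kg p.o.; plasma, ileum and colon sampled at 0–7 h. Drug levels by LC/MS/MS, […]; parameters include colon/ileum and colon/plasma concentration ratios.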

Chain of TYK2 (P29597 whole entry): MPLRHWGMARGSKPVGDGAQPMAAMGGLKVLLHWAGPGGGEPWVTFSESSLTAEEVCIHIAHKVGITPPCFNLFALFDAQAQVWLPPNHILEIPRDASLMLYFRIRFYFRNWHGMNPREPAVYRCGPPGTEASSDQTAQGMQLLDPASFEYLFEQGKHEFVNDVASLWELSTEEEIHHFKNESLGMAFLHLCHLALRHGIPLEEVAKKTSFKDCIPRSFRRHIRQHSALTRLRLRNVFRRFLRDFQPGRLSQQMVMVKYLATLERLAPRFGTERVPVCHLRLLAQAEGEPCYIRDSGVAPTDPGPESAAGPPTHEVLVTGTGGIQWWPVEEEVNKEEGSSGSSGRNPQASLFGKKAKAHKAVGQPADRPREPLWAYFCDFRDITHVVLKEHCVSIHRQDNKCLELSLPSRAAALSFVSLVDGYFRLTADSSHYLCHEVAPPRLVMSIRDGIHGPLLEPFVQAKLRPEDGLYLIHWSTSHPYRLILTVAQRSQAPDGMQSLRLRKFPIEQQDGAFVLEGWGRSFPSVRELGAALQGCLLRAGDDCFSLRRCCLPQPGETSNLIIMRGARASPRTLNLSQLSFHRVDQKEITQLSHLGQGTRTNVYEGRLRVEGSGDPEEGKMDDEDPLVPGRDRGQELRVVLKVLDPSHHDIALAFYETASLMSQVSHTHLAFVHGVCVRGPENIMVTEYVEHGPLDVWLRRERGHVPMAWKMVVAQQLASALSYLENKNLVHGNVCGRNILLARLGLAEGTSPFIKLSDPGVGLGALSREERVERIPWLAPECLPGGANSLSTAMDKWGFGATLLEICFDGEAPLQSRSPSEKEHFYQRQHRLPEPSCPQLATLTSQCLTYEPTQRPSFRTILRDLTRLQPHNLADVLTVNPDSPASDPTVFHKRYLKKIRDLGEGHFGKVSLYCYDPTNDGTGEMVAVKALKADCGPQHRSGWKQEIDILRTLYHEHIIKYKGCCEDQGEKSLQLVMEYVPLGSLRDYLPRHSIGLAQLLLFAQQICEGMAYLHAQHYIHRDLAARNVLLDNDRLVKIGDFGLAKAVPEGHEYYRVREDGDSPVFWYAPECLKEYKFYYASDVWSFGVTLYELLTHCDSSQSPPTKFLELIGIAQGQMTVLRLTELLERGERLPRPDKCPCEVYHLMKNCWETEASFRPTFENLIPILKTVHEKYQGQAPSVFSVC

Structure (SMILES)	IC50 [1] [nM]	IC50 [2] [nM]	Cmax ([3]; plasma, blood) [ng/mL]	AUC(0-t) ([3]; plasma, blood) [ng·h/mL]	AUC(0-inf) ([3]; plasma, blood) [ng·h/mL]	half-life ([3]; plasma, blood) [h]	MRT ([3]; plasma, blood) [h]	Tmax ([3]; plasma, blood) [h]	Cmax ([3]; colon) [ng/mL]	AUC(0-t) ([3]; colon) [ng·h/mL]	MRT ([3]; colon) [h]	Tmax ([3]; colon) [h]	Cmax ([3]; ileum) [ng/mL]	AUC(0-t) ([3]; ileum) [ng·h/mL]	AUC(0-inf) ([3]; ileum) [ng·h/mL]	half-life ([3]; ileum) [h]	MRT ([3]; ileum) [h]	Tmax ([3]; ileum) [h]	AUC(0-inf) ([3]; colon) [ng·h/mL]	half-life ([3]; colon) [h]
Cc1cnc(Nc2cc3ncccc3c(N[C@@H]3C[C@H]4CC[C@@H](C3)N4CCC#N)n2)s1 [Embodiment 1, 3-((3-exo)-3-((7-((5-methylthioazol-2-yl)amino)-1,6-diazanaphthalen-5-yl)amino)-8-azabicyclo[3.2.1]oct-8-yl)propionitrile]	0.55	0.15	25.6	58.1	61.5	1.75	2.03	0.5	2720	8320	3.68	3	27100	90500	93700	1.08	2.84	3	–	–
Cc1cc(Nc2nc(N[C@@H]3C[C@H]4CC[C@@H](C3)N4CCC#N)nc3ccsc23)n[nH]1 [Embodiment 60, 3-((3-exo)-3-((4-((5-methyl-1H-pyrazol-3-yl)amino)thieno[3,2-d]pyrimidin-2-yl)amino)-8-azabicyclo[3.2.1]oct-8-yl)propionitrile]	0.46	2.9	10.3	31.1	32.9	1.41	2.58	2	2310	9130	3.83	5	26100	98000	103000	1.26	2.49	1	–	–
COc1ccc2c(Nc3cc(C)[nH]n3)nc(N[C@@H]3C[C@H]4CC[C@@H](C3)N4CCC#N)nc2c1 [Embodiment 169, 3-((3-exo)-3-((7-methoxyl-4-((5-methyl-1H-pyrazol-3-yl)amino)quinazolin-2-yl)amino)-8-azabicyclo[3.2.1]oct-8-yl)propionitrile]	0.5	9.32	2.21	3.04	–	–	1.08	0.5	9010	23200	2.29	5	23300	68900	–	–	4.64	1	–	–
Cc1cc(Nc2nc(N[C@@H]3C[C@H]4CC[C@@H](C3)N4CCC#N)nc3cc(Br)ccc23)n[nH]1 [Embodiment 170, 3-((3-exo)-3-((7-bromine-4-((5-methyl-1H-pyrazol-3-yl)amino)quinazolin-2-yl)amino)-8-azabicyclo[3.2.1]oct-8-yl)propionitrile]	0.225	3.35	16	36.7	–	–	4.13	7	4320	13000	3.36	3	49900	118000	172000	5.48	2.19	1	–	–
Cc1cc(Nc2nc(N[C@@H]3C[C@H]4CC[C@@H](C3)N4CCC#N)nc3cc(Cl)ccc23)n[nH]1 [Embodiment 171, 3-((3-exo)-3-((7-chloro-4-((5-methyl-1H-pyrazol-3-yl)amino)quinazolin-2-yl)amino)-8-azabicyclo[3.2.1]oct-8-yl)propionitrile]	0.6	0.85	8.91	23.4	26.7	1.93	3.05	2	438	2010	4.24	3	17000	79800	–	–	3.35	3	–	–
Cc1cc(Nc2nc(N[C@@H]3C[C@H]4CC[C@@H](C3)N4S(=O)(=O)N3CC(C#N)C3)nc3ccccc23)n[nH]1 [Embodiment 213, 1-(((3-exo)-3-((4-((5-methyl-1H-pyrazol-3-yl)amino)quinazolin-2-yl)amino)-8-azabicyclo[3.2.1]oct-8-yl)sulfonyl)azetindin-3-formonitrile]	0.46	11.1	9.69	7.37	–	–	2.66	3	1750	4930	4.92	5	321	1240	–	–	4.26	5	–	–
Cc1cc(Nc2nc(N[C@@H]3C[C@H]4CC[C@@H](C3)N4S(=O)(=O)N3CC(C#N)C3)nc3cc(Cl)ccc23)n[nH]1 [Embodiment 214]	0.455	17.7	1.6	3.59	–	–	1.82	3	5590	19500	4.4	5	24800	49300	49500	0.79	1.52	1	–	–
Cc1cc(Nc2nc(N[C@@H]3C[C@H]4CC[C@@H](C3)N4S(=O)(=O)N3CC(C#N)C3)nc3sccc23)n[nH]1 [Embodiment 237, 1-(((3-exo)-3-((4-((5-methyl-1H-pyrazol-3-yl)amino)thieno[2,3-d]pyrimidin-2-yl)amino)-8-azabicyclo[3.2.1]oct-8-yl)sulfonyl)azetindin-3-formonitrile]	0.32	0.56	7.12	11	–	–	1.73	2	2210	6460	3.43	3	4140	15300	15400	0.55	2.43	3	7240	1.52
Cc1cc(Nc2nc(N[C@@H]3C[C@H]4CCC[C@@H](C3)N4S(=O)(=O)N3CC(C#N)C3)nc3sccc23)n[nH]1 [Embodiment 238]	0.12	1.15	12.7	19.6	–	–	1.47	1	1320	5270	4.16	3	21000	36600	36600	0.58	1.29	1	7380	2.89
Cc1cc(Nc2nc(N[C@@H]3C[C@H]4CCC[C@@H](C3)N4C(=O)CN3CCOCC3)nc3sccc23)n[nH]1 [Embodiment 246, 1-((3-exo)-3-((4-((5-methyl-1H-pyrazol-3-yl)amino)thieno[2,3-d]pyrimidin-2-yl)amino)-9-azabicyclo[3.3.1]non-9-yl)-2-morpholinoethane-1-one]	1.88	1	5.56	4.76	–	–	1.46	2	3260	13800	4.79	7	16800	27900	28400	1.81	1.28	1	–	–
